From patent US20230355632A1, “DEUTERATED PARAXANTHINE AND USES THEREOF” (Lennham Pharmaceuticals, Inc., priority 2020, published 2023)

Columns and labels:
[1] = Pharmacokinetic (PK) study in Sprague-Dawley rats, plasma, oral (gavage) dose; format: in vivo; details: rat; for AUC(0-t) / Cmax / Tmax: plasma, single oral (gavage) dose, fasted male Sprague Dawley rats, target dose 30 mg/kg (paraxanthine-d6 31 mg/kg, adjusted for MW)
Experimental: Two groups of fasted male Sprague-Dawley rats (12 animals per group) may be administered an oral single dose of paraxanthine in deionized water (Group 1) or paraxanthine-d6 (a compound of Formula (Ia)), in deionized water (Group 2) at a target dose level of […]. Serial blood samples may be collected from three animals per group per timepoint prior to dosing and at 0.25, 0.5, 1, 2, 3 4, 6, 8, 10, 12, and 14-hours post dose. No more than three blood samples may be collected from individual animals with the last sample being a terminal blood draw. Terminal brain samples may be collected from three animals per group at 1, 4, 8, and 14-hours post dose. Blood samples may be collected into tubes containing sodium heparin, and then processed for plasma and stored frozen until bioanalysis. Brain samples may be collected following the terminal blood collection, rinsed with saline, and stored frozen until bioanalysis. Plasma and brain samples may be analyzed for paraxanthine and paraxanthine-d6 (a compound of Formula (Ia)) concentration using a liquid chromatography-tandem mass spectrometry (LC-MS/MS) method. Non-compartmental pharmacokinetic parameter estimates may be calculated from the mean plasma concentration-time data. A pharmacokinetic (PK) study was conducted in Sprague-Dawley rats. Mean pharmacokinetic parameter estimates in plasma for paraxanthine and paraxanthine-d6 (a compound of Formula (Ia)) following an oral dose of paraxanthine or D6-paraxanthine to male Sprague-Dawley rats are reported in Table 1. […] The dose level for paraxanthine-d6 (a compound of Formula (Ia)) was adjusted to account for molecular weight differences between paraxanthine (MW=180.17) and paraxanthine-d6 (MW=186.2).

[2] = Human pharmacokinetic (PK) crossover study of caffeine versus d9-caffeine; plasma metabolites paraxanthine / paraxanthine-d6; format: in vivo; details: for elimination ½ life: estimated, over both dose levels (0.26 and 1.29 mmol caffeine or d9-caffeine), as metabolite in human plasma; for AUC(0-t) / Cmax / Tmax / half-life: human, plasma, plasma metabolite, arithmetic mean, healthy adults
Experimental: A double-blind, randomized, two-part, two-period crossover study was conducted to evaluate the pharmacokinetics of caffeine versus d9-caffeine (depicted as compound 14 within U.S. Pat. No. 10,582,716, the disclosure of which is incorporated herein by reference) and their respective metabolites at two dose levels in 20 healthy adult volunteers. A single dose of 50 mg (0.26 mmol) or 250 mg (1.29 mmol) of caffeine, or a molar-equivalent dose of d9-caffeine, were administered in aqueous solution with blood samples collected for up to 48 hours post-dose. Plasma concentrations of parent and metabolites were analyzed using validated LC-MS/MS methods. The pharmacokinetic parameters of the primary caffeine metabolite, paraxanthine, and its respective counterpart, paraxanthine-d6, were analyzed and are reported in Table 2. The elimination ½ life of paraxanthine was estimated at 5-8 hours, consistent with published literature. The elimination ½ life of paraxathine-d6 was estimated at >18-22 hours, a […] difference. […] The data from this study supports the administration of paraxanthine-d6 once daily to humans to prevent or treat various diseases and conditions.

[3] = single dose 0.26 mmol caffeine (paraxanthine) or 0.26 mmol d9-caffeine (paraxanthine-d6)
[4] = single dose 1.29 mmol caffeine (paraxanthine) or 1.29 mmol d9-caffeine (paraxanthine-d6)

AUC(0-t) [1] | Cmax [1] | Tmax [1] | elimination ½ life [2] | AUC(0-t) [2, 3] | Cmax [2, 3] | Tmax [2, 3] | half-life [2, 3] | AUC(0-t) [2, 4] | Cmax [2, 4] | Tmax [2, 4] | half-life [2, 4] | elimination ½ life of paraxanthine-d6 compared with paraxanthine ([1]; in vivo) | Compound
170 µg·h/mL | 38.9 µg/mL | 0.5 h | 5 to 8 h | 31.5 µM·h | 1.62 µM | 8.22 h | 7.58 h | 122 µM·h | 7.17 µM | 7.5 h | 5.74 h |  | Cn1c(=O)[nH]c2ncn(C)c2c1=O [Paraxanthine, paraxanthine]
196 µg·h/mL | 42.4 µg/mL | 0.5 h | 18 to 22 h | 110 µM·h | 2.9 µM | 21.1 h | > 18 h | 110 µM·h | 2.9 µM | 21.1 h | > 22 h | no difference | [2H]C([2H])([2H])n1c(=O)[nH]c2ncn(C([2H])([2H])[2H])c2c1=O [Paraxanthine-d6, paraxanthine-d6]
